Marks after values point to notes of the source that are not given here.
How the values were obtained:
[1] = type: in vivo, rats; settings: rats, US17 diet with 1, 3 or 10 g/day human equivalent dose, one month
Excerpt: Mice were fed a US17 diet containing α-linolenic acid ethyl ester (ALA-EE), stearidonic acid ethyl ester (SDA-EE), eicosapentaenoic acid ethyl ester (EPA-EE), or docosahexaenoic acid ethyl ester (DHA-EE) in an amount equivalent to a human western diet containing 1, 3 or 10 g/day of the fatty acid (g/day human equivalent dose). In order to maintain a 17% fat (37 en %) content in the US17 diet, oleic acid (18:1 n-9), as an oleic acid cassette, was removed from the US17 diet in an amount equal to the amount of fatty acid ester that was added. Oleic acid was selected as the replacement fatty acid because literature reports indicate that oleic acid is neutral with respect to inflammation and cancer.
After one month on the respective US17-based diets, the mice were sacrificed and the fatty acid composition of each of their livers was analyzed by gas chromatography. The results of these analyses are pressured in FIG. 8.
The method used was as described in Example 6 except that rats were used in place of mice.

HT-29 cells = assay: Primary tumor growth in the nude mouse/HT-29 cancer model; type: in vivo; settings: nude mice, HT-29 cells in footpad, US17 diet containing stearidonic acid 3% (10 g/day human equivalent dose), after 35 days
Procedure: The efficacy of stearidonic acid (18:4n-3) in inhibiting primary tumor growth was evaluated using the nude mouse/HT-29 model. The nude mouse/HT-29 model has been described previously. Hernandez-Alcoceloa R., Fernandez, F., Lacal, J C, Cancer Res., 59(13), 312-18 (1999); Fantini, J., Cancer J., 5(2) (1992).
Nude (i.e., immunodeficient) mice were fed the US17 diet for three weeks. HT-29 cells were cultured in RPMI-1640 medium supplemented with fetal bovine serum, penicillin, and streptomycin (Gibco, Grand Island, N.Y.) and maintained in a CO2 atmosphere at 37° C. After achieving the optimal cell density, the HT-29 cells were rinsed and then suspended in phosphate buffered saline (PBS). A cell suspension was made in MATRIGEL (Becton Dickinson Labware, Bedford, Mass.). The suspension was ⅔ by volume cells in PBS and ⅓ by volume MATRIGEL. MATRIGEL provides an extracellular matrix secreted by […]. The matrix contains angiogenic and cell proliferation growth factors that aid in HT-29 cell attachment and proliferation as a primary tumor.
One million cells were injected in a 30 μl volume into the subplanter area of the righthind footpad of the nude mice. […] The amount of primary tumor growth was measured by measuring the change in mouse footpad volume over time. Footpad volume was measured with a plethysmometer (Ugo Basile, Camerio-Varese, Italy).

[2] = test system: Min/+ mouse model of intestinal cancer; assay: Intestinal polyp formation in the Min/+ mouse model of intestinal cancer; type: in vivo; parameters: Avg. large intestine tumor size: unit not given here; settings: Min/+ mice
Procedure: The efficacy of select n-3 and n-6 polyunsaturated fatty acids was evaluated in the Min/+ mouse model of intestinal cancer. The following fatty acid ethyl esters were tested for their effect on intestinal polyp formation: 1) ALA-EE; 2) SDA-EE; 2) EPA-EE; 4) DHA-EE; 5) GLA-EE ([…], 18:3 n-6); and 6) CLA-EE (conjugated linoleic acid; c9t11-18:2 (77%)+c9c11-18:2 (18%)+other isomers (5%)).
These fatty acid ethyl esters were added to the US17 diet to provide 10 g/day human equivalent dose (3% wt.). The NSAID, sulindac (320 ppm), served as the positive control. In order to maintain a 17% fat (37 en%) content in the US17 diet, oleic acid (18:1 n-9) was removed from the US17 diet in an amount equal to the amount of the fatty acid ethyl ester that was added. Mice were received at approximately five weeks of age and were fed the test diets upon receipt. After seven weeks on the respective test diet, the mice were sacrificed and the intestinal polyps were counted and measured.

[3] = Arachidonic acid level in phospholipid fraction of small intestine, Min/+ mouse; type: in vivo; settings: Min/+ mice, fed as ethyl esters, 10 g/day human equivalent dose in US17 diet
Procedure: Fatty acid composition was determined in the small intestine because that is where the vast majority of polyps form. These fatty acid esters were added to the US17 diet as discussed in Example 8. The arachidonic acid level in the phospholipid fraction of the small intestines of the mice was determined by gas chromatography. In FIG. 11, bars labeled with the same letter (e.g., control and CLA, both labeled with a “b”) have values which, statistically, are not different.

HepG2 cells [4] = assay: Uptake of 14C-ALA, 14C-SDA and 14C-EPA by HepG2 cells; type: in vitro ADME
Procedure: To a culture medium containing HepG2 cells was added 20 μM ^14C-ALA, ^14C-SDA or ^14C-EPA complexed to fatty acid free BSA. The amount of ^14C-ALA, ^14C-SDA or ^14-EPA EPA Taken up by the HepG2 cells was measured 6 hours, 24 hours and 48 hours after addition of the fatty acid. A scintillation counter was used to measure the total amount of radioactivity in the HepG2 cells and the amount remaining in the medium.

HepG2 cells [5] = assay: Metabolism of radiolabeled fatty acids to long chain n-3 PUFAs (EPA, DHA) in HepG2 cells; type: in vitro ADME
Procedure: HepG2 cells were allowed to take up ^14C-ALA or ^14C-SDA as described in Example 2. The total amount of ^14C-EPA, ^14C-DPA and ^14C-DHA present in the HepG2 cells was measured 6 hours, 24 hours and 48 hours after addition of the fatty acid by argentation thin layer chromatography (TLC). The amount of each fatty acid present as a band on the TLC plate was quantified by electronic autoradiography using an Instant Imager supplied by Packard (Meriden, Conn.).
HepG2 cells were allowed to take up ^14C-ALA, ^14C-SDA or ^14C-EPA as described in Example 2. The amount of ^14C-EPA and ^14C-DHA present in the HepG2 cells was measured 6 hours, 24 hours and 48 hours after addition of the fatty acids by argentation thin layer chromatography (TLC) as described in Example 3. The amount of ^14C-EPA and ^14C-DHA present as bands on the TLC plate were quantified by electronic autoradiography using an Instant Imager as described in Example 3.

[6] = large intestine and small intestine, versus US17 diet, 10 g/day human equivalent dose
[7] = 10 g/day human equivalent dose (3% wt.) or sulindac 320 ppm, seven weeks, mean ± SEM
[8] = 10 g/day human equivalent dose (3% wt.) or sulindac 320 ppm, seven weeks, mean ± SEM, tumor number × tumor size
[9] = fatty acid ethyl ester 10 g/day human equivalent dose (3% wt.) in US17 diet or sulindac 320 ppm, seven weeks
[10] = large and small intestine, 10 g/day human equivalent dose (3% wt.) or sulindac 320 ppm, seven weeks, mean ± SEM

In the case of CC/C=C\C/C=C\C/C=C\C/C=C\CCCCC(=O)O [SDA, stearidonic acid], the “level of arachidonic acid in liver tissue (FIG. 9)” value [1] is reported as “greater decrease in the level of arachidonic acid than did either ALA or EPA”, the “less primary tumor growth (footpad volume) than US17 diet” value (HT-29 cells) is reported as 33% and the “effectiveness in inhibiting polyp formation and development in the large intestine” value ([2]; 10 g/day human equivalent dose) is reported as “comparable to that of sulindac”. For the same compound, the “effectiveness in inhibiting polyp formation and development in the small intestine” value ([2]; 10 g/day human equivalent dose) was “comparable to that of EPA”, the “decrease in polyp load (number×size)” value [2, 6] was 56% and the “decrease in polyp number” value [2, 6] was 47%. For the same compound, the “decrease in polyp size” value [2, 6] was 18%, the “Total small intestine tumors/group” value ([2]; 10 g/day human equivalent dose (3% wt.) or sulindac 320 ppm, seven weeks) was 185 and the “Avg. large intestine tumors/mouse” value [2, 7] was 0.2 ± 0.1^d. For the same compound, the “Avg. small intestine tumor size” value [2, 7] was 1.07 ± 0.02^ab mm, the “Avg. small intestine tumors/mouse” value [2, 7] was 18.5 ± 1.9^c and the “Avg. large intestine tumor size” value ([2]; 10 g/day human equivalent dose (3% wt.) or sulindac 320 ppm, seven weeks, mean ± SEM, only animals bearing colonic tumors) was 1.50 ± 0.00^b. The “Avg. large intestine tumor load” value [2, 8] was 0.30 ± 0.20^d mm, the “Avg. small intestine tumor load” value [2, 8] was 19.90 ± 2.11^cd mm and the “Total large intestine tumors/group” value [2, 9] was 2. For the same compound, the “Total large intestine tumors/group, figure in brackets (animals bearing tumors/animals in group)” value [2, 9] was 2/10, the “Total Avg. overall tumor load” value [2, 10] was 20.19 ± 2.24^cd mm and the “Total Avg. overall tumor size” value [2, 10] was 1.08 ± 0.02^d mm. For the same compound, the “Total Avg. tumors/mouse” value [2, 10] was 18.7 ± 1.9^a, the “decreasing the level of arachidonic acid in the small intestine (phospholipid fraction, FIG. 11)” value [3] was “more effective than ALA, EPA and DHA” and the “radiolabeled fatty acid taken up by the cells” value (HepG2 cells [4]; 20 μM complexed to fatty acid free BSA, within the first six hours of incubation) was “Approximately 95%”. The “uptake by HepG2 cells, comparison (FIG. 1)” value (HepG2 cells [4]; 20 μM, 6, 24 and 48 hours) was “taken up equally”, the “metabolism to long chain n-3 PUFAs, comparison (FIG. 2 to FIG. 3)” value (HepG2 cells [5]) was “faster than that of ALA” and the “rate of metabolism to EPA and further to DHA relative to ALA” value (HepG2 cells [5]) was “approximately twice that of ALA”. The “metabolized to 14C-fatty acid end products (EPA or DHA) or intermediates (20:4 n-3, 22:5 n-3, 24:5 n-3)” value (HepG2 cells [5]; 20 μM) was ~95%.

— US6340705B1, “Use of α-linolenic acid metabolites for treatment or prevention of cancer” (Monsanto Technology, LLC, priority 1999, dated 2002)
